This note sets out measurements from patent publication US12521393B2, “Cytotoxicity targeting chimeras for CCR2-expressing cells” (GLAXOSMITHKLINE INTELLECTUAL PROPERTY DEVELOPMENT LIMITED, priority 2021, dated 2026).

Counter-ions that a name gives are not always drawn.

The test system of test [1] is endogenous target monocytes in human PBMC. In words: PBMC ex vivo monocyte depletion flow cytometry assay (Example 200). In kind it is cell-based. Particulars: with anti-cotinine antibody (SEQ ID NO: 11/12), 18-24 hours, EC50 in molar, read-out: Ex Vivo Depletion Assay pEC50 (converted). The essentials:
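Monocyte depletion is reported as pEC50, averaged or given individually across runs, and read by flow cytometry staining CD45, CD14 and CD4 with a viability dye. Compounds, diluted four-fold over 11 points from 1 mM DMSO stocks, were combined with 30 μg/mL Fc-enhanced anti-cotinine antibody and human PBMC, then incubated 18-24 h at 37° C.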

Test [2] addresses anti-cotinine antibody (SEQ ID NO: 11/12, rabbit variable region with human IgG1 Fc DE mutation). In words: SPR binding of anti-cotinine antibody to ARM compounds, Biacore T200, 37° C. (Example 202). Particulars: SPR Biacore T200, 37° C., pH 7.4, antibody SEQ ID NO: 11/12 captured on protein A; Kd in molar. As for the experimental part:
Anti-cotinine antibodies having a heavy chain sequence of SEQ ID NO: 11 and a light chain sequence of SEQ ID NO: 12 (rabbit variable region with human IgG1 Fc domain containing a DE mutation (S239D/1332E)) were captured on one or more flow cells of a protein A sensor chip (Cytiva) using a Biacore T200 while reserving flow cell 1 as a reference. Following capture, a 3000 second wait step was included to reduce drift during compound analysis. ARM compounds of Formula (I) were then injected at 100 μL/min with 200 and 2000 second association and dissociation times. The entire experiment was run at 37° C. with running buffer containing 10 mM HEPES pH 7.4, 150 mM NaCl, 0.005% P20 and 1% DMSO. ARM compounds of Formula (I) were titrated with a top concentration of 200 nM using a 3-fold 5-point dilution series and a corresponding 5-injection buffer cycle was run for blank subtraction. Data were double referenced by subtracting the response of the reference flow cell from that of the antibody-containing flow cell and subsequently subtracting the referenced blank sensorgrams. Following compound analysis, the surface was regenerated using a 30 second injection of pH 1.5 glycine at a flow rate of 30 μL/min after which antibody was re-captured. The experiment was run using Biacore T200 control software and evaluated using Biacore T200 Evaluation software. Curves were fit with a 1:1 kinetic binding model to obtain kon (1/Ms), koff(1/s), Kd (M) determined as koff/kon, and residence time determined as 1/koff (s).
Anti-cotinine antibody was tested for binding to ARMs compounds of Formula (I) of the invention in the above assay in or more experimental runs and the results are shown in Table 5 below. Affinity is reported as a pKd value. The pKd value is the negative log of the Kd value, wherein the Kd value is the dissociation constant measured in molar (M) as noted above. For compounds tested in more than one experimental run, the pKd value is reported as an average
For orientation: Surface plasmon resonance follows binding to a sensor surface in real time, without labels.

Test [3] has as its system CCR2 expressing cells (CD11b+Ly6c+Hi) in peripheral blood. In words: In vivo depletion assay, flow cytometry of peripheral blood (Example 201). Further details: species or system human CCR2 knock-in mice (C57 background). As to conditions: hCCR2 knock-in mice, IV 0.1 mpk compound + 10 mpk anti-cotinine antibody (SEQ ID NO: 13/14), peripheral blood at 48 hr. The essentials: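 Flow cytometry of blood collected at study termination quantified percent depletion of CD11b+Ly6c+Hi cells and CCR2 expression, using surface markers CD45, CD3, CD11b, Ly6C, human CCR2 after Fc block, with 7AAD viability stain. Compound given in saline:DMSO:PBS formulation, optionally combined with anti-cotinine antibody, incubated 30 min before administration.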
On the technique in general: In flow cytometry, cells or beads pass a laser one at a time.

The target of test [4] is human alpha1 nicotinic acetylcholine (nACh) receptor (Homo sapiens, UniProt P02708). Put plainly: Nicotinic acetylcholine receptor antagonism assay, IONFlux automated patch clamp (Example 203). In kind it is cell-based. Particulars: for IC50: antagonism of ACh-stimulated human alpha1 nAChR current, patch clamp; for Emax at 10 µM: maximum percentage antagonism at maximum concentration tested 10 μM, read-out: Maximum Response. As for the experimental part: Cells expressing human alpha1 nicotinic acetylcholine (nACh) receptor (nAChR) were washed and dissociated using Trypsin containing buffer. Cells were then washed and seeded at a density of 3-5 million cells/mL and allowed to grow for 3 days. Then, 60-80 μL of cells were added to plates and incubated with dose response of an ARM compound of Formula (I) with a top concentration of either 10 μM or 100 μM. The receptor was then stimulated via addition of acetylcholine (ACh) and activation of the receptor was monitored via the IONFlux automated patch clamp system. IonFlux Data Analyzer software was utilized to perform leak subtraction and measure (min) peak current amplitude.
Data processing: (1) Current values recorded for vehicle only applications in individual traps/patterns were subtracted from corresponding current amplitude values for control, test article and control+test article. (2) Control response was calculated as % of the average response of the 3rd out of total 3 ACh (10 mM) applications alone. In rare situations, if the 3rd ACh response was obscured due to technical artifacts, the 2nd and/or 1st ACh (10 mM) application was considered as control. The peak current amplitude generated in the presence of each test article concentration was then used to calculate the % inhibition as compared to control response (10 mM ACh alone). These estimates were further corrected for vehicle response and run down corrected by normalizing with time matched control responses (10 mM ACh alone). The corrected percentages were then fit with a non-linear function in GraphPad Prism 6 (or later versions) to determine the IC50.
Exclusion criteria: (i) any n's with poor recording quality, (ii) control current amplitude <500 pA or (iii) significant outliers, as determined by the Grubbs test.
ARMs compounds of Formula (I) of the invention were tested for antagonism of the nAChR in the above assay in […] experimental runs and the results are shown in Table 7 below. Antagonistic activity of the compounds of Formula (I) of the invention is reported as an IC50 value (half maximal inhibitory concentration) and the maximum percentage antagonism observed at the highest concentration of compound of Formula (I) tested, as indicated in Table 7. For compounds tested in more than one experimental run, the IC50 value is reported as an average
In general terms: In patch-clamp work, channel activity is measured electrically.

human alpha1 nicotinic acetylcholine (nACh) receptor, sequence (P02708 21-457): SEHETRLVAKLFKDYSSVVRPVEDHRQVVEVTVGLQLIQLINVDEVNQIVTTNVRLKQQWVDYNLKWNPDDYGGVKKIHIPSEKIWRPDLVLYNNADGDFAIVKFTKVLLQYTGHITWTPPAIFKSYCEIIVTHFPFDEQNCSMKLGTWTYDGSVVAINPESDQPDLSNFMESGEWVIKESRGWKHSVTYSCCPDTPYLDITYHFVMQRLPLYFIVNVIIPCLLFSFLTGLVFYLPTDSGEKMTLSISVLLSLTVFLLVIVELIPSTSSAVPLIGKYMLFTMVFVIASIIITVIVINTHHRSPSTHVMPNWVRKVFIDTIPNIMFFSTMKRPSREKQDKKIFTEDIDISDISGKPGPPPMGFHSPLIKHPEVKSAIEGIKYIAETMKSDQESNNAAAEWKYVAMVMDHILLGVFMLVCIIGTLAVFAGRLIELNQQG
human alpha1 nicotinic acetylcholine (nACh) receptor, sequence (P11230 24-501 partner): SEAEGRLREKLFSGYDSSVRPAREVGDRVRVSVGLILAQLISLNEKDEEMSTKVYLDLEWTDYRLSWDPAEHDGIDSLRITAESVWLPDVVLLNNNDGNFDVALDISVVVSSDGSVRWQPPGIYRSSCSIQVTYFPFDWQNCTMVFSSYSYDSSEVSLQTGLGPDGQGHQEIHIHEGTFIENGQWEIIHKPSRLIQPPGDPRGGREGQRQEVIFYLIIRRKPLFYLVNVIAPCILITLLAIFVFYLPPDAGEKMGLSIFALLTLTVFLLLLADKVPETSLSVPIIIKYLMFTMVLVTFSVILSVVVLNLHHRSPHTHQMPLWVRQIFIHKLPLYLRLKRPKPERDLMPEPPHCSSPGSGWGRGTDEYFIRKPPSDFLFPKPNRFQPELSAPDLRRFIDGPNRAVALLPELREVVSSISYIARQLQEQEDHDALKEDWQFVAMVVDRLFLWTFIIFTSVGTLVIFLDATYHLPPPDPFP
human alpha1 nicotinic acetylcholine (nACh) receptor, sequence (Q07001 22-517 partner): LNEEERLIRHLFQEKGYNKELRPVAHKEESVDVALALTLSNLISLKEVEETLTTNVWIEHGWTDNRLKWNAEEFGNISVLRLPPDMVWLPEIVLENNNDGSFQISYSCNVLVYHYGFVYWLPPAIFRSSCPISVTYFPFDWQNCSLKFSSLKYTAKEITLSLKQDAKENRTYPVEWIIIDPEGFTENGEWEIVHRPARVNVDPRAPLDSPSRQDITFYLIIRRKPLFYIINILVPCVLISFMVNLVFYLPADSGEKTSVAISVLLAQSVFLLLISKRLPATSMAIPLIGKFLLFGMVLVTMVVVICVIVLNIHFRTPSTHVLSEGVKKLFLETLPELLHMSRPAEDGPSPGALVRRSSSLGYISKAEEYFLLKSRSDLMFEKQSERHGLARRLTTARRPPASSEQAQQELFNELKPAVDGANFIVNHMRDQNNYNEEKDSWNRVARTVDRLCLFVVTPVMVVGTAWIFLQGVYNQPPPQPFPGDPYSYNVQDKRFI

With `CC(C)N(C)[C@@H]1CC[C@H](N2CC[C@H](Nc3ncnc4ccc(C(F)(F)F)cc34)C2=O)[C@H](NC(=O)C2CCN(C(=O)CCOCCOCCOCCNC(=O)[C@H]3CC(=O)N(C)[C@@H]3c3cccnc3)CC2)C1` [Example 29, N-((1R,2S,5R)-5-(Isopropyl(methyl)amino)-2-((S)-2-oxo-3-((6-(trifluoromethyl)quinazolin-4-yl)amino)pyrrolidin-1-yl)cyclohexyl)-1-(1-((2S,3S)-1-methyl-5-oxo-2-(pyridin-3-yl)pyrrolidin-3-yl)-1-oxo-5,8,11-trioxa-2-azatetradecan-14-oyl)piperidine-4-carboxamide], the EC50 in test [1] is 2.51 nM. Further, the “pKd of Antibody for ARM Compound of Formula (I)” value (“pKd of Antibody” below) in test [2] is given as 9.3345.
On to `CC(C)N(C)[C@@H]1CCC(N2CC[C@H](Nc3ncnc4ccc(C(F)(F)F)cc34)C2=O)[C@H](NC(=O)CCOCCOCCOCCOCCOCCOCCOCCOCCNC(=O)[C@H]2CC(=O)N(C)[C@@H]2c2cccnc2)C1` (stereo partly drawn) [Example 42, (2S,3S)-N-(27-(((1R,2S,5R)-5-(isopropyl(methyl)amino)-2-((S)-2-oxo-3-((6-(trifluoromethyl)quinazolin-4-yl)amino)pyrrolidin-1-yl)cyclohexyl)amino)-27-oxo-3,6,9,12,15,18,21,24-octaoxaheptacosyl)-1-methyl-5-oxo-2-(pyriidn-3-yl)pyrrolidine-3-carboxamide], for which the EC50 in test [1] is 3.16 nM. Moreover, the “pKd of Antibody” value in test [2] is 9.23.
What is called IC50 is the concentration that inhibits the measured activity by half. The low end stands for greater potency in that assay, the high end for weaker potency in that assay. Take `CC(C)N(C)[C@@H]1CC[C@H](N2CC[C@H](Nc3ncnc4ccc(C(F)(F)F)cc34)C2=O)[C@H](NC(=O)c2ccc(C3CCN(CCOCCOCCNC(=O)[C@H]4CC(=O)N(C)[C@@H]4c4cccnc4)CC3)cn2)C1` [Example 94, N-((1R,2S,5R)-5-(Isopropyl(methyl)amino)-2-((S)-2-oxo-3-((6-(trifluoromethyl)quinazolin-4-yl)amino)pyrrolidin-1-yl)cyclohexyl)-5-(1-(2-(2-(2-((2S,3S)-1-methyl-5-oxo-2-(pyridin-3-yl)pyrrolidine-3-carboxamido)ethoxy)ethoxy)ethyl)piperidin-4-yl)picolinamide]: in test [1], the EC50 is 2 nM. In addition, in test [3], the “% Depletion of CCR2 expressing cells” value was 88.66%. In test [4], half-maximal inhibition (IC50) required 4660 nM and the Emax at 10 µM worked out at 67.1%.
The like results for `CC(C)N(C)[C@@H]1CC[C@H](N2CC[C@H](Nc3ncnc4ccc(C(F)(F)F)cc34)C2=O)[C@H](NC(=O)c2ccc(N3CCC(C(=O)NCCOCCOCCNC(=O)[C@H]4CC(=O)N(C)[C@@H]4c4cccnc4)CC3)cc2)C1` [Example 130, 1-(4-(((1R,2S,5R)-5-(Isopropyl(methyl)amino)-2-((S)-2-oxo-3-((6-(trifluoromethyl)quinazolin-4-yl)amino)pyrrolidin-1-yl)cyclohexyl)carbamoyl)phenyl)-N-(2-(2-(2-((2S,3S)-1-methyl-5-oxo-2-(pyridin-3-yl)pyrrolidine-3-carboxamido)ethoxy)ethoxy)ethyl)piperidine-4-carboxamide] were, in that order, 0.631 nM, 81.81%, at least 10000 nM and 16.8%.
The like results for `CC(C)N(C)[C@@H]1CC[C@H](N2CC[C@H](Nc3ncnc4ccc(C(F)(F)F)cc34)C2=O)[C@H](NC(=O)[C@H]2CC[C@H](c3ccc(C(=O)NCCOCCOCCNC(=O)[C@H]4CC(=O)N(C)[C@@H]4c4cccnc4)cc3)CC2)C1` [Example 140, (2S,3S)-N-(2-(2-(2-(4-((1R,4r)-4-(((1R,2S,5R)-5-(Isopropyl(methyl)amino)-2-((S)-2-oxo-3-((6-(trifluoromethyl)quinazolin-4-yl)amino)pyrrolidin-1-yl)cyclohexyl)carbamoyl)cyclohexyl)benzamido)ethoxy)ethoxy)ethyl)-1-methyl-5-oxo-2-(pyridin-3-yl)pyrrolidine-3-carboxamide] were, in that order, 0.398 nM, 89.13%, at least 10000 nM and 18.2%.
On the same counts, the results for `CC(C)N(C)[C@@H]1CC[C@H](N2CC[C@H](Nc3ncnc4ccc(C(F)(F)F)cc34)C2=O)[C@H](NC(=O)C2CCN(c3ccc(C(=O)NCCOCCOCCNC(=O)[C@H]4CC(=O)N(C)[C@@H]4c4cccnc4)cc3)CC2)C1` [Example 142, N-((1R,2S,5R)-5-(Isopropyl(methyl)amino)-2-((S)-2-oxo-3-((6-(trifluoromethyl)quinazolin-4-yl)amino)pyrrolidin-1-yl)cyclohexyl)-1-(4-((2-(2-(2-((2S,3S)-1-methyl-5-oxo-2-(pyridin-3-yl)pyrrolidine-3-carboxamido)ethoxy)ethoxy)ethyl)carbamoyl)phenyl)piperidine-4-carboxamide] are 0.398 nM, 79.27%, at least 10000 nM and 13.1%.
Take `CC(C)N(C)[C@@H]1CC[C@H](N2CC[C@H](Nc3ncnc4ccc(C(F)(F)F)cc34)C2=O)[C@H](NC(=O)[C@H]2CC[C@@H](NC(=O)COCCOCCNC(=O)CNC(=O)[C@H]3CC(=O)N(C)[C@@H]3c3cccnc3)CC2)C1` [Example 171, (2S,3S)-N-(2-((2-(2-(2-(((1S,4s)-4-(((1R,2S,5R)-5-(Isopropyl(methyl)amino)-2-((S)-2-oxo-3-((6-(trifluoromethyl)quinazolin-4-yl)amino)pyrrolidin-1-yl)cyclohexyl)carbamoyl)cyclohexyl)amino)-2-oxoethoxy)ethoxy)ethyl)amino)-2-oxoethyl)-1-methyl-5-oxo-2-(pyridin-3-yl)pyrrolidine-3-carboxamide]: the “pKd of Antibody” value in test [2] is given as 8.7865.
Consider `CC(C)N(C)[C@@H]1CC[C@H](N2CC[C@H](Nc3ncnc4ccc(C(F)(F)F)cc34)C2=O)[C@H](NC(=O)CCOCCN2CCC3(CCC(C(=O)NCCNC(=O)[C@H]4CC(=O)N(C)[C@@H]4c4cccnc4)CC3)CC2)C1` [Example 184, 3-(2-(3-(((1R,2S,5R)-5-(isopropyl(methyl)amino)-2-((S)-2-oxo-3-((6-(trifluoromethyl)quinazolin-4-yl)amino)450yridine450ne-1-yl)cyclohexyl)amino)-3-oxopropoxy)ethyl)-N-(2-((2S,3S)-1-methyl-5-oxo-2-(450yridine-3-yl)pyrrolidine-3-carboxamido)ethyl)-3-azaspiro[5.5]undecane-9-carboxamide, 3Formic acid salt], for which the EC50 in test [1] was 0.251 nM. Moreover, in test [3], the “% Depletion of CCR2 expressing cells” value came to 85.99%. In test [4], the IC50 amounted to 6390 nM and the Emax at 10 µM was 69.2%.
